# Measured values from ChEMBL document CHEMBL1148914, “Cadinane sesquiterpenes from the brown alga Dictyopteris divaricata” (J Nat Prod, 2004).
# Test system: A549
# Experiment: Cytotoxicity against human A549 cells by MTT assay
# Type: functional, cell-based
row,SMILES,IC50 [µg/mL]
1,C=C1CC[C@]2(O)[C@H]([C@H](C(C)(C)O)CC[C@H]2C)[C@H]1O,> 10
2,CC(C)[C@@H]1CC[C@@H](C)[C@]2(O)CC[C@@](C)(O)[C@@H](O)[C@@H]12,> 10
3,CC1=CC[C@@]2(O)[C@H](C)CC[C@@H](C(C)C)[C@@H]2C1=O,> 10
4,CC(C)[C@@H]1CC[C@@H](C)[C@]2(O)CCC(C=O)=C[C@@H]12,> 10
5,CC1=CC[C@]2(O)[C@@H]([C@@H]1O)[C@H](C(C)C)CC[C@H]2C,> 10
6,CC1=CC[C@]2(O)[C@@H]([C@H]1O)[C@H](C(C)C)CC[C@H]2C,> 10
7,C=C1CC[C@]2(O)[C@@H]([C@@H]1O)[C@H](C(C)C)CC[C@H]2C,> 10

# Test system: BGC-823
# Experiment: Cytotoxicity against human BGC823 cells by MTT assay
# Type: functional, cell-based
row,SMILES,IC50 [µg/mL]
1,C=C1CC[C@]2(O)[C@H]([C@H](C(C)(C)O)CC[C@H]2C)[C@H]1O,> 10
2,CC(C)[C@@H]1CC[C@@H](C)[C@]2(O)CC[C@@](C)(O)[C@@H](O)[C@@H]12,> 10
3,CC1=CC[C@@]2(O)[C@H](C)CC[C@@H](C(C)C)[C@@H]2C1=O,> 10
4,CC(C)[C@@H]1CC[C@@H](C)[C@]2(O)CCC(C=O)=C[C@@H]12,> 10
5,CC1=CC[C@]2(O)[C@@H]([C@@H]1O)[C@H](C(C)C)CC[C@H]2C,> 10
6,CC1=CC[C@]2(O)[C@@H]([C@H]1O)[C@H](C(C)C)CC[C@H]2C,> 10
7,C=C1CC[C@]2(O)[C@@H]([C@@H]1O)[C@H](C(C)C)CC[C@H]2C,> 10

# Test system: MCF7
# Experiment: Cytotoxicity against human MCF7 cells by MTT assay
# Type: functional, cell-based
row,SMILES,IC50 [µg/mL]
1,C=C1CC[C@]2(O)[C@H]([C@H](C(C)(C)O)CC[C@H]2C)[C@H]1O,> 10
2,CC(C)[C@@H]1CC[C@@H](C)[C@]2(O)CC[C@@](C)(O)[C@@H](O)[C@@H]12,> 10
3,CC1=CC[C@@]2(O)[C@H](C)CC[C@@H](C(C)C)[C@@H]2C1=O,> 10
4,CC(C)[C@@H]1CC[C@@H](C)[C@]2(O)CCC(C=O)=C[C@@H]12,> 10
5,CC1=CC[C@]2(O)[C@@H]([C@@H]1O)[C@H](C(C)C)CC[C@H]2C,> 10
6,CC1=CC[C@]2(O)[C@@H]([C@H]1O)[C@H](C(C)C)CC[C@H]2C,> 10
7,C=C1CC[C@]2(O)[C@@H]([C@@H]1O)[C@H](C(C)C)CC[C@H]2C,> 10

# Test system: Bel-7402
# Experiment: Cytotoxicity against human Bel7402 cells by MTT assay
# Type: functional, cell-based
row,SMILES,IC50 [µg/mL]
1,C=C1CC[C@]2(O)[C@H]([C@H](C(C)(C)O)CC[C@H]2C)[C@H]1O,> 10
2,CC(C)[C@@H]1CC[C@@H](C)[C@]2(O)CC[C@@](C)(O)[C@@H](O)[C@@H]12,> 10
3,CC1=CC[C@@]2(O)[C@H](C)CC[C@@H](C(C)C)[C@@H]2C1=O,> 10
4,CC(C)[C@@H]1CC[C@@H](C)[C@]2(O)CCC(C=O)=C[C@@H]12,> 10
5,CC1=CC[C@]2(O)[C@@H]([C@@H]1O)[C@H](C(C)C)CC[C@H]2C,> 10
6,CC1=CC[C@]2(O)[C@@H]([C@H]1O)[C@H](C(C)C)CC[C@H]2C,> 10
7,C=C1CC[C@]2(O)[C@@H]([C@@H]1O)[C@H](C(C)C)CC[C@H]2C,> 10

# Test system: HCT-8
# Experiment: Cytotoxicity against human HCT8 cells by MTT assay
# Type: functional, cell-based
row,SMILES,IC50 [µg/mL]
1,C=C1CC[C@]2(O)[C@H]([C@H](C(C)(C)O)CC[C@H]2C)[C@H]1O,> 10
2,CC(C)[C@@H]1CC[C@@H](C)[C@]2(O)CC[C@@](C)(O)[C@@H](O)[C@@H]12,> 10
3,CC1=CC[C@@]2(O)[C@H](C)CC[C@@H](C(C)C)[C@@H]2C1=O,> 10
4,CC(C)[C@@H]1CC[C@@H](C)[C@]2(O)CCC(C=O)=C[C@@H]12,> 10
5,CC1=CC[C@]2(O)[C@@H]([C@@H]1O)[C@H](C(C)C)CC[C@H]2C,> 10
6,CC1=CC[C@]2(O)[C@@H]([C@H]1O)[C@H](C(C)C)CC[C@H]2C,> 10
7,C=C1CC[C@]2(O)[C@@H]([C@@H]1O)[C@H](C(C)C)CC[C@H]2C,> 10
